Results on 2 compounds are retold here after patent publication US20210087640A1, “APPLICATION OF LARP7 GENE IN CANCER DIAGNOSIS AND TREATMENT” (SHANGHAI JIAO TONG UNIVERSITY, priority 2018, published 2021).

Where two headings read alike, the source gives them in different places.

Assay [1] concerns triple-negative breast cancer cells HCC1937. Description: CCK8 cell viability experiment, HCC1937. The assay is classed as cell-based. Particulars: read-out: IC50 (the concentration of drug required for 50% inhibition).
Assay [2] relates to triple-negative breast cancer cells MDA-MB-231. Description: CCK8 cell viability experiment, MDA-MB-231. Type of assay: cell-based.
The subject of assay [3] is cervical cancer cells Hela. Nature of the assay: CCK8 cell viability experiment, Hela. The assay is classed as cell-based.
The next assay concerns MDA-MB-231. Description: Clone formation experiment, MDA-MB-231. The assay is classed as cell-based. Particulars: LARP7 overexpression in MDA-MB-231 vs control.
For another assay, the system named is Hela. Description: Clone formation experiment, Hela. Type of assay: cell-based. Particulars: LARP7 overexpression in Hela vs control.
The subject of a further assay is HCC1937 xenograft tumor. Description: Radiotherapy and chemotherapy of xenograft tumor mice, HCC1937. The assay is classed as in vivo. Particulars: CDDP and radiation.
In assay [4] the test system is MDA-MB-231 xenograft tumor. Description: Radiotherapy and chemotherapy of xenograft tumor mice, MDA-MB-231. Type of assay: in vivo. Particulars: CDDP and radiation.

As to `[NH2][Pt]([NH2])([Cl])[Cl]` [CDDP, cisplatin], the IC50 was 102 ± 9.1 µM in assay [1] (HCC1937 control group (of LARP7 knock-down)); 185 ± 20.5 µM in assay [1] (LARP7-knock-down HCC1937 cells); 76.3 ± 26.7 µM in assay [2] (LARP7-overexpressing MDA-MB-231 cells); 232 ± 83.9 µM in assay [2] (MDA-MB-231 control group (of LARP7 overexpression)); 55.8 ± 5.4 µM in assay [3] (LARP7-knockdown (siLARP7, sgLARP7)); 19.1 ± 6.9 µM in assay [3] (LARP7 overexpression). Further, the IC50 in assay [3] (control group of LARP7-knockdown) came out at 31.4 ± 6 µM; in assay [3] (control group of LARP7 overexpression), 39.6 ± 2.5 µM. Besides, the entries for the “sensitivity of the cells by clone formation” value in the assay with MDA-MB-231 and with Hela were “significantly increases the sensitivity” and “significantly increases cell sensitivity”, respectively. The “sensitivity of in vivo tumor tissue” value is “sensitive” in the assay with HCC1937 xenograft tumor (HCC1937 cells (high LARP7 expression)), “less sensitive” with HCC1937 xenograft tumor (LARP7-knock-out HCC1937 cells (sgLARP7)), “tolerant” in assay [4] (MDA-MB-231 cells (low LARP7 expression)) and “significantly improved the sensitivity” in assay [4] (MDA-MB-231 cells with artificial LARP7 overexpression).

Take `CO[C@@]12[C@H](COC(N)=O)C3=C(C(=O)C(C)=C(N)C3=O)N1C[C@@H]1N[C@@H]12` [MMS, mitomycin]: the IC50 in assay [1] (Homo sapiens, HCC1937, HCC1937 control group (of LARP7 knock-down)) came out at 247 ± 38.1 µM; in assay [1] (Homo sapiens, HCC1937, LARP7-knock-down HCC1937 cells), 682 ± 123 µM; in assay [2] (Homo sapiens, MDA-MB-231, LARP7-overexpressing MDA-MB-231 cells), 262 ± 20.3 µM; in assay [2] (Homo sapiens, MDA-MB-231, MDA-MB-231 control group (of LARP7 overexpression)), 451 ± 29.4 µM; in assay [3] (Homo sapiens, HeLa, LARP7 overexpression) it was 123 ± 22 µM; in assay [3] (Homo sapiens, HeLa, control group of LARP7 overexpression) it was 210 ± 21.6 µM.
